Reference: patent US8921059B2, “Method and kit for detection of guaiacol-producing bacterium” (Calpis Co., Ltd., priority 2009, dated 2014)
“Also recorded” adds a separate entry of the source.

Experiments:
[1] = tested on: A. pomorum JCM21459; assay: Colony formation of thermotolerant acidophilic bacteria on YSG agar medium containing the substrate (Example 1); format: cell-based, Alicyclobacillus pomorum; set-up: key to detected level of colonies: ++: the detected level was at or above the level of the medium without a substrate (i.e. YSG medium); +: the detected level was lower than the level of the medium without a substrate; −: undetectable; settings: for detected level of colonies: cultivation at 45° C. for 3 days; for colonies detected: 45° C. for 3 days
Experimental: (§1) A YSG agar medium containing vanillin, vanillic acid or ferulic acid was used to study the colony formation of thermotolerant acidophilic bacteria (TAB). Four bacterial strains used were A. acidoterrestris ATCC49025, A. acidiphilus JCM21417, A. acidocaldarius ATCC27009 and A. pomorum JCM21459. Among these, A. acidoterrestris ATCC49025 and A. acidiphilus JCM21417 have been reported as the bacterial strains producing guaiacol. […] After cooling to about 50° C., pH was adjusted to 3.7 with 10% sulfuric acid and a plate medium was prepared. The suspensions of the respective bacterial strains were subjected to a heat-shock treatment at 70° C. for 20 min. The bacterial suspensions were serially diluted with phosphate buffered saline up to 10^3 CFU/mL and 100 μL from the dilutions was smeared on the plates for culture. Cultivation was carried out at 45° C. for 3 days before the colonies formed were visually inspected. Similar experiments were carried out with replacing vanillic acid with vanillin or ferulic acid. When the medium was not easily solidified, the amount of agar was appropriately adjusted.

[2] = tested on: A. acidoterrestris ATCC49025; assay: Effects of culture temperature on the detection level of colonies (Example 2); format: cell-based, Alicyclobacillus acidoterrestris; settings: for number of colonies, relative value (YSG medium without any substrate at 45° C. for 3 days = 100): 75 ppm in YSG medium
Experimental: Effects of culture temperature on the detection level of colonies of A. acidoterrestris ATCC49025 were studied using YSG agar medium containing vanillin, vanillic acid or ferulic acid. […] The suspensions containing the same number of bacterial cells of A. acidoterrestris ATCC49025 were smeared on the plates and cultured at 45° C. or 30° C. A YSG medium without any substrate was used as a control. The values are expressed as relative values to the number of colonies obtained after cultivation at 45° C. for 3 days in a YSG medium without any substrate being regarded as 100.

[3] = tested on: A. acidiphilus JCM21417; assay: Colony formation of thermotolerant acidophilic bacteria on YSG agar medium containing the substrate (Example 1); format: cell-based, Alicyclobacillus acidiphilus; set-up: key to detected level of colonies: ++: the detected level was at or above the level of the medium without a substrate (i.e. YSG medium); +: the detected level was lower than the level of the medium without a substrate; −: undetectable; settings: for detected level of colonies: cultivation at 45° C. for 3 days
Experimental: as §1

[4] = tested on: A. acidocaldarius ATCC27009; assay: as above; format: cell-based, Alicyclobacillus acidocaldarius; set-up: key to detected level of colonies: ++: the detected level was at or above the level of the medium without a substrate (i.e. YSG medium); +: the detected level was lower than the level of the medium without a substrate; −: undetectable; settings: for detected level of colonies: cultivation at 45° C. for 3 days; for colonies detected: 45° C. for 3 days
Experimental: as §1

[5] = tested on: A. acidoterrestris ATCC49025; assay: as above; format: cell-based, Alicyclobacillus acidoterrestris; set-up: key to detected level of colonies: ++: the detected level was at or above the level of the medium without a substrate (i.e. YSG medium); +: the detected level was lower than the level of the medium without a substrate; −: undetectable; settings: for detected level of colonies: cultivation at 45° C. for 3 days
Source text: A YSG agar medium containing vanillin, vanillic acid or ferulic acid was used to study the colony formation of thermotolerant acidophilic bacteria (TAB). Four bacterial strains used were A. acidoterrestris ATCC49025, A. acidiphilus JCM21417, A. acidocaldarius ATCC27009 and A. pomorum JCM21459. Among these, A. acidoterrestris ATCC49025 and A. acidiphilus JCM21417 have been reported as the bacterial strains producing guaiacol. A YSG medium (Merck K.K., YGS Agar; 20.0 g) and vanillic acid (Wako Pure Chemical Industries, Ltd.; 0 to 250 mg) were dissolved in 1000 g of water with heating and subjected to autoclave sterilization (121° C. and 15 min.). After cooling to about 50° C., pH was adjusted to 3.7 with 10% sulfuric acid and a plate medium was prepared. The suspensions of the respective bacterial strains were subjected to a heat-shock treatment at 70° C. for 20 min. The bacterial suspensions were serially diluted with phosphate buffered saline up to 10^3 CFU/mL and 100 μL from the dilutions was smeared on the plates for culture. Cultivation was carried out at 45° C. for 3 days before the colonies formed were visually inspected. Similar experiments were carried out with replacing vanillic acid with vanillin or ferulic acid. When the medium was not easily solidified, the amount of agar was appropriately adjusted.

[6] = used instead of vanillic acid, concentration not given

COc1cc(/C=C/C(=O)O)ccc1O [ferulic acid]
detected level of colonies ([1]; 25 ppm in YSG agar): − | detected level of colonies ([1]; 50 ppm in YSG agar): − | detected level of colonies ([1]; 75 ppm in YSG agar): − | detection sensitivity compared to the medium without any substrate ([2]; 25 ppm): improved | number of colonies at 30° C. for 5 days compared with 45° C. for 3 days [2, 6]: The same tendency was observed | detected level of colonies ([3]; 25 ppm in YSG agar): ++ | detected level of colonies ([3]; 50 ppm in YSG agar): − | detected level of colonies ([3]; 75 ppm in YSG agar): − | detected level of colonies ([4]; 25 ppm in YSG agar): − | detected level of colonies ([4]; 50 ppm in YSG agar): − | detected level of colonies ([4]; 75 ppm in YSG agar): − | detected level of colonies ([5]; 25 ppm in YSG agar): ++ | detected level of colonies ([5]; 50 ppm in YSG agar): ++ | detected level of colonies ([5]; 75 ppm in YSG agar): −

COc1cc(C(=O)O)ccc1O [vanillic acid]
detected level of colonies ([1]; 10 ppm in YSG agar): ++ | detected level of colonies ([1]; 50 ppm in YSG agar): − | detected level of colonies ([1]; 75 ppm in YSG agar): − | colonies detected ([1]; 75 ppm): no colony was detected | detected level of colonies ([1]; 100 ppm in YSG agar): − | colonies detected ([1]; 100 ppm): no colony was detected | detected level of colonies ([1]; 150 ppm in YSG agar): − | detected level of colonies ([1]; 200 ppm in YSG agar): − | detected level of colonies ([1]; 225 ppm in YSG agar): − | detected level of colonies ([1]; 250 ppm in YSG agar): − | detection sensitivity compared to the medium without any substrate ([2]; 50 ppm): improved | number of colonies, relative value (YSG medium without any substrate at 45° C. for 3 days = 100) ([2]; 30° C., 5 days): 186 | number of colonies, relative value (YSG medium without any substrate at 45° C. for 3 days = 100) ([2]; 45° C., 3 days): 183 | number of colonies at 30° C. for 5 days compared with 45° C. for 3 days ([2]; 75 ppm in solid medium): the same number of colonies is obtained; also recorded: almost the same number of colonies was detected | colonies detected compared to the medium without any substrate ([2]; 75 ppm, 45° C.): more colonies were detected | detected level of colonies ([3]; 10 ppm in YSG agar): ++ | detected level of colonies ([3]; 50 ppm in YSG agar): ++ | detected level of colonies ([3]; 75 ppm in YSG agar): ++ | colonies detected compared with medium without vanillic acid ([3]; 75 ppm, 45° C. for 3 days): the same level or more colonies were detected as in the medium without vanillic acid | detected level of colonies ([3]; 100 ppm in YSG agar): − | colonies detected ([3]; 100 ppm, 45° C. for 3 days): no colony was detected | detected level of colonies ([3]; 150 ppm in YSG agar): − | detected level of colonies ([3]; 200 ppm in YSG agar): − | detected level of colonies ([3]; 225 ppm in YSG agar): − | detected level of colonies ([3]; 250 ppm in YSG agar): − | detected level of colonies ([4]; 10 ppm in YSG agar): ++ | detected level of colonies ([4]; 50 ppm in YSG agar): − | detected level of colonies ([4]; 75 ppm in YSG agar): − | colonies detected ([4]; 75 ppm): no colony was detected | detected level of colonies ([4]; 100 ppm in YSG agar): − | colonies detected ([4]; 100 ppm): no colony was detected | detected level of colonies ([4]; 150 ppm in YSG agar): − | detected level of colonies ([4]; 200 ppm in YSG agar): − | detected level of colonies ([4]; 225 ppm in YSG agar): − | detected level of colonies ([4]; 250 ppm in YSG agar): − | detected level of colonies ([5]; 10 ppm in YSG agar): ++ | detected level of colonies ([5]; 50 ppm in YSG agar): ++ | detected level of colonies ([5]; 75 ppm in YSG agar): ++ | colonies detected compared with medium without vanillic acid ([5]; 75 ppm, 45° C. for 3 days): the same level or more colonies were detected as in the medium without vanillic acid | detected level of colonies ([5]; 100 ppm in YSG agar): ++ | colonies detected compared with medium without vanillic acid ([5]; 100 ppm, 45° C. for 3 days): the same level or more colonies were detected as in the medium without vanillic acid | detected level of colonies ([5]; 150 ppm in YSG agar): ++ | colonies detected compared with medium without vanillic acid ([5]; 150 ppm, 45° C. for 3 days): detected at the same level as in the medium without vanillic acid | detected level of colonies ([5]; 200 ppm in YSG agar): ++ | colonies detected compared with medium without vanillic acid ([5]; 200 ppm, 45° C. for 3 days): detected at the same level as in the medium without vanillic acid | detected level of colonies ([5]; 225 ppm in YSG agar): + | detection sensitivity of AAT ([5]; 225 ppm, 45° C. for 3 days): lower | detected level of colonies ([5]; 250 ppm in YSG agar): − | colonies detected ([5]; 250 ppm or more, 45° C. for 3 days): no colonies were detected

COc1cc(C=O)ccc1O [vanillin]
detected level of colonies ([1]; 500 ppm in YSG agar): − | detected level of colonies ([1]; 750 ppm in YSG agar): − | detected level of colonies ([1]; 900 ppm in YSG agar): − | detected level of colonies ([1]; 950 ppm in YSG agar): − | detected level of colonies ([1]; 1000 ppm in YSG agar): − | detection sensitivity compared to the medium without any substrate ([2]; 750 ppm): improved | number of colonies at 30° C. for 5 days compared with 45° C. for 3 days [2, 6]: The same tendency was observed | detected level of colonies ([3]; 500 ppm in YSG agar): + | detected level of colonies ([3]; 750 ppm in YSG agar): + | detected level of colonies ([3]; 900 ppm in YSG agar): + | detected level of colonies ([3]; 950 ppm in YSG agar): − | detected level of colonies ([3]; 1000 ppm in YSG agar): − | detected level of colonies ([4]; 500 ppm in YSG agar): − | detected level of colonies ([4]; 750 ppm in YSG agar): − | detected level of colonies ([4]; 900 ppm in YSG agar): − | detected level of colonies ([4]; 950 ppm in YSG agar): − | detected level of colonies ([4]; 1000 ppm in YSG agar): − | detected level of colonies ([5]; 500 ppm in YSG agar): ++ | detected level of colonies ([5]; 750 ppm in YSG agar): ++ | detected level of colonies ([5]; 900 ppm in YSG agar): ++ | detected level of colonies ([5]; 950 ppm in YSG agar): ++ | detected level of colonies ([5]; 1000 ppm in YSG agar): +
